Data published in US20130072448A1, “Drug Combination Comprising A Glycolysis Inhibitor And A Tyrosine Kinase Inhibitor” (URIFER LTD., priority 2011, published 2013).

Key:
[1] = test system: HCT116 colon cancer cells; assay: Dead cells fraction by FACS (PI), HCT116; format: cell-based; settings: compounds alone or in combination
Protocol: (§1) Florescence assisted cell sorting (FACS) was performed as described in Pasder O, et al. [Pasder O, et al. Oncogene 2006; 25(30):4194-206]. Cells were rinsed twice with cold PBS, and then harvested by treatment with trypsin. Suspended cells were washed twice in 10 ml cold PBS and centrifuged at 500 g for 5 min. In cell cycle analyses, the pellet was resuspended in 200 μl cold PBS and cells were stained in the dark with 200 μl propidium iodide (PI) solution (20 mM Tris, pH 8, 1 mM NaCl, 0.1% (v/v) NP-40, 1.4 mg/ml RNase A, 0.05 mg/ml PI) for 30 min at […]. In experiments to determine the fraction of dead cells in a population of cells, the detergent NP-40 was omitted. The total cellular DNA content was determined using a Becton Dickinson flow cytometer (FACSCalibur). The data were analyzed using Cell Quest Pro software (Becton Dickinson) and ModFit LT software.

Hep3B liver cancer cells = assay: Dead cells fraction by FACS (PI), Hep3B; format: cell-based, human; settings: compounds alone or in combination
Protocol: as §1
(§2) To study the effect of various combinations of Fer and glycolysis inhibitors on cell cycle progression, various concentrations of 0260 and DG alone and in combination were tested in Hep3B liver cancer cells and on human foreskin cells (FS11) as a non-cancer controls.

[2] = test system: human foreskin cells (FS11); assay: Dead cells fraction by FACS (PI), normal FS11 cells; format: cell-based; settings: up to 1000 μM DG and 1 μM compound 0260, alone or in combinations
Protocol: as §1, §2

Fer = biological target: T1, Fer (Homo sapiens, UniProt P16591); assay: in-vivo Fer activity assay: auto-phosphorylation of Fer in HCT116 CC cells (IP, anti-phosphotyrosine western blot); format: cell-based; settings: serum deprived 24 h with 2 μM 0260, 20 mM H2O2 15 min before harvest
T1 construct: endogenous in cells; host or cells: HCT116 colon carcinoma cells
T1 sequence (P16591 whole entry): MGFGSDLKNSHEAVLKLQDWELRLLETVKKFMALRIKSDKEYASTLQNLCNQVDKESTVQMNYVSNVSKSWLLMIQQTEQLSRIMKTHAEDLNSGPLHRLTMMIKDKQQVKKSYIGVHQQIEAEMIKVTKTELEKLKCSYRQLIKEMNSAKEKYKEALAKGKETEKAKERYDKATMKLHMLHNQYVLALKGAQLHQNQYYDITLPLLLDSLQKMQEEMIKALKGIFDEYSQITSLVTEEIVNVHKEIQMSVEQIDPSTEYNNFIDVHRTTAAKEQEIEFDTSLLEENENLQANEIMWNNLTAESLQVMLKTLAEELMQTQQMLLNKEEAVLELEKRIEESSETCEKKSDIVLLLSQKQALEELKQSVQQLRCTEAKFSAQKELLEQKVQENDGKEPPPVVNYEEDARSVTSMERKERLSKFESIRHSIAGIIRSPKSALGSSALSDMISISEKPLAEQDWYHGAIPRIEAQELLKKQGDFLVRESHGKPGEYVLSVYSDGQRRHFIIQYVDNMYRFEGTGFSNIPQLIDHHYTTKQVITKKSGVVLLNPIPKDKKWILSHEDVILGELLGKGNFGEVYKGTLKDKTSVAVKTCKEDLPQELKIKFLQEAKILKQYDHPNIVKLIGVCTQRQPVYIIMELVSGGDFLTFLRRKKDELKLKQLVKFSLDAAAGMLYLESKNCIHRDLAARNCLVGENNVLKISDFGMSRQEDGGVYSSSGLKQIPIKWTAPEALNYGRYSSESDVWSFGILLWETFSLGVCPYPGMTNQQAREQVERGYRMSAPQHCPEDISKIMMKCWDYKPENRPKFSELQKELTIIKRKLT
Protocol: HCT116 CC cells were deprived of serum for 24 h in the presence of 2 μM 0260 or 0.5% DMSO (the solvent). 15 min before harvest cells were treated with 20 mM H2O2— for activation and auto-phosphorylation of Fer. Protein lysates were prepared from cells: starved in the presence of DMSO and treated with H2O2 (1), starved in the presence of 0260 and treated with H2O2 (2), and from untreated cells (3). Fer was immuno-precipitated, resolved in SDS-PAGE and reacted with anti-phosphotyrosine (pY— upper panel) or anti-Fer antibodies (lower panel) in a western blot analysis.
After extraction of cellular proteins, a protein sample of 750-1000 μg was diluted 3fold with TGET buffer (20 mM Tris-HCl (Ph7.5), 1 mM EDTA, 0.1% Triton X100 and 10% Glycerol) with […] and protease inhibitors and incubated with the indicated antibody at a dilution of 1:100 overnight at 4° C. with shaking. At the end of the incubation, 25 μl Protein A/G suspension was added bound to agarose beads. The mixture was shaken for another 90 min at 4° C. The immune complex precipitate was obtained after centrifugation for 20 min at maximum speed and then washed three times in extraction buffer: twice with buffer TGET NaCl 150 mM and once with TGET NaCl 75 mM. The precipitate was suspended in 2× loading buffer. […]

Row | SMILES | dead cells fraction [1] | dead cells fraction (Hep3B liver cancer cells) | dead cells fraction [2] | inhibition of Fer auto-phosphorylation (Fer)
1 | O=CC[C@@H](O)[C@H](O)[C@H](O)CO [DG, 2-deoxyglucose, reference compound] | only minor effect | only minor effect | only minor effects | 
2 | CC(C)c1ccc(-c2cn3nc(N4CCC(CN5CCN(C)CC5)CC4)sc3n2)cc1 [compound 0260, 6-(4-isopropyl-phenyl)-2-{4-[(4-methyl-piperazin-1-yl)methyl]piperidin-1-yl}imidazo[2,1-b][1,3,4]thiadiazole] | only minor effect | only minor effect | only minor effects | efficient inhibition
